According to patent US20150216806A1, “LAXATIVE COMPOSITIONS AND METHODS FOR TREATING CONSTIPATION AND RELATED GASTROINTESTINAL DISEASES AND CONDITIONS” (SALIX PHARMACEUTICALS, INC., priority 2012, published 2015):

Test system: patient with chronic constipation
Experiment: Example 7: case report, bisoxatin added to colchicine in chronic constipation
Format: in vivo, human
Details: 1 mg in the morning and 1.5 in the evening; still missing a day here and there
Experimental: They were given added bisoxatin of 120 mg twice daily. […] They were going too well however and the bisoxatin had to be cut back 120 mg mane. For a week or so they were able to take the bisoxatin 120 in the morning and every second day 120 at night. They continued with the treatment for 3 or 4 weeks to date.

## COc1cc2c(c(OC)c1OC)-c1ccc(OC)c(=O)cc1[C@@H](NC(C)=O)CC2 [colchicine]
  response of constipation to colchicine alone: did not respond
